This note sets out measurements from patent US20120258938A1, “Enzymatic Production or Chemical Synthesis and Uses for 5,7-Dienes and UVB Conversion Products Thereof” (priority 2008, published 2012).

By kcat is commonly meant the maximal rate divided by the concentration of active sites. One may read the EC50 as the midpoint of the concentration-response curve. A higher EC50 goes with weaker potency.

Assay [1] deals with immortalized normal epidermal melanocytes (PIG1 line). The assay is described as follows: Proliferation of PIG1 melanocytes. It is filed as cell-based. Conditions: PIG1, 72 h.
The target of a further assay is T1, CYP27A1 (Homo sapiens, UniProt Q02318).
T1 sequence (Q02318 34-531): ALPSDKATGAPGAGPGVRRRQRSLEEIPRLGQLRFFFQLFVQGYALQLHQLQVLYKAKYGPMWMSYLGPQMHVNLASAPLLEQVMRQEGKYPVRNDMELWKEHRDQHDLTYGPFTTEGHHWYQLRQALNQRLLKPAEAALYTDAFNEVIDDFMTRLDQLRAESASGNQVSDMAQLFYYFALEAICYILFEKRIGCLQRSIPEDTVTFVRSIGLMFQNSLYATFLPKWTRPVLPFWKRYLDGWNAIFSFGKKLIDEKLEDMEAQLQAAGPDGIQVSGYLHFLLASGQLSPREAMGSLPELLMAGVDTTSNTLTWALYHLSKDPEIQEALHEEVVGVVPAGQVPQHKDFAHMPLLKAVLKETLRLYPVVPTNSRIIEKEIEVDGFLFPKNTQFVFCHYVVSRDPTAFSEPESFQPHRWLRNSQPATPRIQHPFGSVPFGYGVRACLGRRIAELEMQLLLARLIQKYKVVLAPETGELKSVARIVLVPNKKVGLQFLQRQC
Put plainly: Metabolism by CYP27A1 (cyclodextrin or phospholipid vesicles). Here is the method:
To test enzymatic metabolism of 20S(OH)D3 and 20R(OH)D3, the substrates were incorporated into phospholipid vesicles with the ratio of substrate to phospholipid being 0.025 mol/mol phospholipid. Vesicles were incubated with 2 μM bovine CYP11A1 or 0.06 μM human CYP27B1 for up to 10 min. To test enzymatic metabolism of 20(OH)D3 in CYP24, the substrate was incorporated into phospholipids vesicles with 0.15-0.5 μM CYP24. To test enzymatic metabolism of 20(OH)D3 in CYP27A1, purified CYP27A1 was preincubated with the vesicles for 6 min at 37° C. Adrenodoxin was added last to initiate the reaction. For kinetic experiments, the incubations were typically 0.5 mL and were carried out over the initial linear period of the reaction (10 min for vitamin D3 and cholesterol and 30 min for 20(OH)D3).
Kinetic characterization of the metabolism of 20(OH)D3 by CYP27A1 was carried out with substrate dissolved in either cyclodextrin or phospholipid vesicle. Vitamin D3 and 20(OH)D3 were incubated with 0.4 μM CYP27A1 and 1 μM CYP27A1, respectively, for 10 and 30 min. The products were analyzed by reverse phase HPLC. The hyperbolic curves were fitted using the equation v/[E]=(kcat—[S])/(Km+[S]) where v is reaction velocity, [E] is the CYP27A1 concentration, and [S] the substrate concentration.

In assay [2] the test system is human breast carcinoma cell line MD-MBA-231. Put plainly: Proliferation of MD-MBA-231 breast carcinoma cells. It is filed as cell-based. Conditions: MD-MBA-231, 48 h, [3H]-thymidine. Here is the method:
(§1) Cells were seeded in 96-well plate and incubated with 20-hydroxycholecalciferol in DMEM medium containing 5% FBS for 48 h (FIG. 25A) or 72 h (FIG. 25C) or for 24 h after a 12 h synchronization in serum free medium (FIG. 25D). […] was added for a final 18 h (FIGS. 25A, 25D) or 12 h (FIG. 25C) of incubation or cells were assessed with sulforhodamine assay (FIG. 25C). Data is shown as mean±SEM (n=5; FIG. 24C) or mean±SEM (n=6; FIGS. 24A, 24C, 24D) and was analyzed using GraphPrism 4.0.

A further assay has as its system PC-3. Put plainly: Flow cytometry cell cycle and subG1, PC-3. It is filed as cell-based, human. Conditions: PC-3, 24 h. Here is the method: MD-MBA-231, MG-63, PC-3, and WM164 cells were seeded into Petri dishes and then incubated for 24 h with 20-hydroxycholecalciferol in DMEM medium containing 5% FBS. Then cells were fixed, DNA stained and samples read with flow cytometer as described (7). Data was analyzed with Cell Quest (BD Biosciences). Cell cycle phases were assessed in viable cell populations and subG1 contents were calculated within whole cell population.
(Flow cytometry measures light scatter and fluorescence of single cells or particles in a stream.)

The subject of assay [3] is bleomycin-induced scleroderma in C57BL/6 mice. The assay is described as follows: Bleomycin-induced scleroderma in mice. It is filed as in vivo, mouse. Here is the method:
[…] The skin was injected S.C. with 20(OH)D3 or vehicle daily within the same 1.5 cm^2 area. On day 22, all mice were euthanized and skin in the shaved area of the back was treated with a depilatory agent after which a biopsy of 1 cm circumference encompassing the S.C. injection site was taken to a depth to include the full thickness of the dermis. The skin samples from 5 randomly selected mice from each group were weighed and snap frozen in liquid nitrogen. Later, the skin samples were thawed and treated overnight with pepsin (0.1 mg/ml) of 0.5 M acetic acid at 4° C. with constant rocking to remove terminal non-helical telopeptides to release the collagen into solution. Total solubilized collagen was quantitative using a Sircol Collagen Assay kit using type I bovine collagen to obtain a standard curve. The collagen content of the skin samples was expressed as μg of collagen per mg tissue weight. Results for the groups were expressed as mean±SEM and analyzed by one way ANOVA with p values<0.05 considered to be statistically significant.

The test system of assay [4] is human radial growth phase amelanotic melanoma WM35 cells. Put plainly: Viability of WM35 melanoma cells. It is filed as cell-based. Conditions: WM35, 24 h. Here is the method:
as §1

The test system of assay [5] is HL-60 human promyelocytic leukemia cells. Put plainly: Monocytic differentiation (NBT), HL-60. Particulars: HL-60, 0.1 μM. It is filed as cell-based. Here is the method: HL-60 human promyelocytic and U937 promonocytic leukemia cells were treated with the drugs at 0.1 μM or vehicle (negative control or 12-O-tetradecanoylphorbol-13-acetate (TPA) (positive control). Media were changed every 72 h and test substances added fresh every day. Differentiation toward monocytes-like morphology and NBT-reduction has been assessed after 5 and 7 days. Cells (2×106) were washed with PBS four times and resuspended in 200 μL of NBT solution (4 mg/mL) in water. After the addition of 200 ul of TPA solution (2 ug/ml) in PBS cells were incubated at 37° C. for 60 min in 24-well plates. Cell differentiation was assessed by intracellular blue formazan deposits. The NBT positive and negative cells were scored under light microscopy examination (40×) with a minimum of 200 cells scored.
For spectrophotometric analysis the cells were washed twice with buffer containing cold bovine serum albumin solution (17 mg/mL BSA, 137 mmol/L, NaCl, 5 mmol/L, KCl, 0.8 mmol/L, MgSO4, […], HEPES, pH7.4) to remove unreacted NBT, and the insoluble formazan deposits in the resulting pellet were solubilized in 1 mL of a mixture containing 90% DMSO, 0.1% SDS and 0.01 mmol/L NaOH by vigorous vortexing. The samples were centrifuged 5 min at 1500 g to remove the cellular debris, and then the absorbance of supernatants was measured at 715 nm. Data are expressed as change in A715/106 cells.

SMILES strings stand for the structures.

As for `C=C1/C(=C\C=C2/CCC[C@]3(C)[C@@H]([C@H](C)CCCC(C)(C)O)CC[C@@H]23)C[C@@H](O)C[C@@H]1O` [1α,25-dihydroxycholecalciferol, (5Z,7E)-9,10-secocholesta-5,7,10(19)-triene-1α,3β,25-triol, reference compound], the proliferation entry in assay [1] is “Dose dependent inhibition of the proliferation”.
Take `C=C1CC[C@H](O)C/C1=C/C=C1\CCC[C@@]2(C)[C@H]1CC[C@@H]2[C@@](C)(O)CCCC(C)C` [20(OH)D3, (5Z,7E)-9,10-secocholesta-5,7,10(19)-triene-3β,20-diol]: the kcat at CYP27A1 (cyclodextrin) amounted to 0.013 ± 0.00033 s⁻¹. The kcat at CYP27A1 (phospholipid vesicles) turned out to be 0.0126 ± 0.001 s⁻¹. In assay [2], this molecule yielded a 50% effective concentration (EC50) of 10 nM. For the same molecule, in the assay on PC-3, the “G0/G1 of viable cells” value is reported as 24%, the “G2/M of viable cells” value was determined as 0, the “S of viable cells” value was 76% and the “Viable Cells” value is 4. The molecule further had a subG1 in the assay with PC-3 (whole cell population) of 96. The “bleomycin-induced increase of total skin collagen” value in assay [3] (3 μg/kg daily dose, 21 days) is listed as “prevented”. The “body weight less than the vehicle control group” value in assay [3] (bleomycin + 20(OH)D3, 21 days) is recorded as 13.6%. Besides, the “concentration above which viability started declining” value in assay [4] is reported as “greater than 1×10^−7 M”.
For the molecule `C=C1CC[C@H](O)C/C1=C/C=C1\CCC[C@]2(C)[C@@H](C(C)=O)CC[C@@H]12` [pD3, (5Z,7E)-3β-hydroxy-9,10-secopregna-5,7,10(19)-trien-20-one], the “monocytic differentiation (NBT staining)” value in assay [5] is listed as “induce monocytic differention”.
